# Values quoted from earlier work as cited in patent publication US9737548B2, “Pharmaceutical formulations and uses thereof in the treatment of female sexual dysfunction” (EB IP LYBRIDO B.V., priority 2005, dated 2017).
# Assays:
# [1] = serum concentration
# [2] = short-lasting peak formulation
SMILES,Tmax [1] [h],time after administration at which peak serum level of testosterone is obtained [2] [min],time after which testosterone serum level is back to the level before administration [2]
COc1cc2nc(N3CCN(C(=O)c4ccco4)CC3)nc(N)c2cc1OC [prazosin],1 to 2,,
"C[C@]12CC[C@H]3[C@@H](CCC4=CC(=O)CC[C@@]43C)[C@@H]1CC[C@@H]2O [testosterone, 17-β-hydroxyandrost-4-en-3-one]",,1 to 20,approximately 120 minutes
